Usually IC50 stands for the point on the concentration scale where inhibition reaches its midpoint. A lower IC50 goes with higher potency.

For test [1], the target named is human Gal-3 (hGal-3) (Homo sapiens (Human), UniProt P17931). Nature of the test: Competitive binding assay: biotinylated hGal-3 binding to microplate-adsorbed asialofetuin (ASF). The conditions noted are these: IC50 values from several measurements given as geomean. Put shortly:
(§1)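 Biotinylated hGal-3 or hGal-1 (preferably cysteine-free Cys→Ser mutant), 300–1000 ng/mL, competes with compound for ASF-coated wells for 3 h at 4 °C. Bound lectin detected with streptavidin-peroxidase (80 ng/mL, 1 h, 4 °C) and ABTS by absorbance; IC50 reported as geomean of several runs.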

Test [2] has as its target human Gal-1 (hGal-1) (Homo sapiens, UniProt P09382, C131S/C17S/C43S/C61S/C89S). Nature of the test: Competitive binding assay: biotinylated hGal-1 binding to microplate-adsorbed asialofetuin (ASF). The conditions noted are these: IC50 values from several measurements given as geomean. A digest of the protocol: as §1

Chain of human Gal-3 (hGal-3) (P17931 whole entry): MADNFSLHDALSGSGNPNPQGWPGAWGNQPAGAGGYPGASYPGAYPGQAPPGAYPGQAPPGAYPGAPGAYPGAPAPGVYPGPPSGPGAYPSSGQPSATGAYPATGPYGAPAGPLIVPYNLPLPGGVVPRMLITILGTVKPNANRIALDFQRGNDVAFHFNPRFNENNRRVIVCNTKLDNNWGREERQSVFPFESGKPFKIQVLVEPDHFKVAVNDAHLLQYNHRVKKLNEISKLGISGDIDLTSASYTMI

As to `CO[C@@H]1[C@@H](n2cc(-c3ccc(Cl)c(F)c3F)nn2)[C@@H](O)[C@@H](CO)O[C@@H]1Cc1cn([C@@H]2CCOC[C@@H]2F)nn1` [Example 2.1.66.A, (2R,3R,4S,5R,6R)-4-(4-(4-chloro-2,3-difluorophenyl)-1H-1,2,3-triazol-1-yl)-6-((1-((3R,4R)-3-fluorotetrahydro-2H-pyran-4-yl)-1H-1,2,3-triazol-4-yl)methyl)-2-(hydroxymethyl)-5-methoxytetrahydro-2H-pyran-3-ol], the values for the IC50 in test [1] and in test [2] were 10 nM and 570 nM, respectively.
On to `CO[C@@H]1[C@@H](n2cc(-c3ccc(Cl)c(F)c3F)nn2)[C@@H](O)[C@@H](CO)O[C@@H]1Cc1cn([C@H]2CCCC[C@@H]2F)nn1` [Example 2.1.81.D, (2R,3R,4S,5R,6R)-4-(4-(4-chloro-2,3-difluorophenyl)-1H-1,2,3-triazol-1-yl)-6-((1-((1S,2S)-2-fluorocyclohexyl)-1H-1,2,3-triazol-4-yl)methyl)-2-(hydroxymethyl)-5-methoxytetrahydro-2H-pyran-3-ol], for which the half-maximal inhibitory concentration (IC50) in test [1] came out at 60 nM; in test [2], 2180 nM.
As to `CO[C@@H]1[C@@H](n2cc(-c3ccc(C)c(F)c3F)nn2)[C@@H](O)[C@@H](CO)O[C@@H]1Cc1cn(C23CC(C2)C3)nn1` [Ex 1.1.12.], the half-inhibitory concentration (IC50) in test [1] turned out to be 50 nM; in test [2], 4150 nM.
Take `CO[C@@H]1[C@@H](n2cc(-c3ccc(Br)c(F)c3F)nn2)[C@@H](O)[C@@H](CO)O[C@@H]1Cn1cc(C2(C)COC2)nn1` [Ex 4.2.6.]: the IC50 in test [1] came out at 70 nM; in test [2], 2530 nM.
As to `CO[C@@H]1[C@@H](n2cc(-c3ccc(Cl)c(F)c3F)nn2)[C@@H](O)[C@@H](CO)O[C@@H]1Cn1cc([C@H]2C[C@@H](N)C2)nn1` [Ex 2.2.87.], the IC50 was 120 nM in test [1] and 7150 nM in test [2].
Regarding `CO[C@@H]1[C@@H](n2cc(-c3ccc(Cl)c(F)c3F)nn2)[C@@H](O)[C@@H](CO)O[C@@H]1Cc1cn(C(C)(C)CO)nn1` [Ex 2.1.9.], the IC50 in test [1] turned out to be 40 nM; in test [2], 1670 nM.
On the same counts, the results for `CCC1(c2cn(C[C@H]3O[C@H](CO)[C@H](O)[C@H](n4cc(-c5ccc(C)c(F)c5F)nn4)[C@H]3OC)nn2)COC1` [Ex 1.2.38.] are 30 nM and 2650 nM.
Consider `CO[C@@H]1[C@@H](n2cc(-c3ccc(Cl)c(F)c3F)nn2)[C@@H](O)[C@@H](CO)O[C@@H]1Cc1cn(C2(C)COC2)nn1` [Ex 2.1.6.], for which the IC50 in test [1] came out at 40 nM; in test [2], 760 nM.
`CO[C@@H]1[C@@H](n2cc(-c3ccc(C)c(F)c3F)nn2)[C@@H](O)[C@@H](CO)O[C@@H]1Cc1cn(C2(C)COC2)nn1` [Ex 1.1.6.]: the figures for the concentration for half-maximal inhibition (IC50) in test [1] and in test [2] were 40 nM and 2210 nM, respectively.
The like results for `CO[C@@H]1[C@@H](n2cc(-c3ccc(Cl)c(F)c3F)nn2)[C@@H](O)[C@@H](CO)O[C@@H]1Cc1cn([C@@H]2COC[C@H]2F)nn1` (single isomer, unassigned) [Example 2.1.74.C, (2R,3R,4S,5R,6R)-4-(4-(4-chloro-2,3-difluorophenyl)-1H-1,2,3-triazol-1-yl)-6-((1-((3R*,4S*)-4-fluorotetrahydrofuran-3-yl)-1H-1,2,3-triazol-4-yl)methyl)-2-(hydroxymethyl)-5-methoxytetrahydro-2H-pyran-3-ol] were, in that order, 60 nM and 3940 nM.
Take `CO[C@@H]1[C@@H](n2cc(-c3ccc(F)c(F)c3F)nn2)[C@@H](O)[C@@H](CO)O[C@@H]1Cc1cn([C@@H]2CCOC[C@H]2F)nn1` (single isomer, unassigned) [Example 3.1.66.D, (2R,3R,4S,5R,6R)-6-((1-((3S*,4R*)-3-fluorotetrahydro-2H-pyran-4-yl)-1H-1,2,3-triazol-4-yl)methyl)-2-(hydroxymethyl)-5-methoxy-4-(4-(2,3,4-trifluorophenyl)-1H-1,2,3-triazol-1-yl)tetrahydro-2H-pyran-3-ol]: the IC50 in test [1] turned out to be 20 nM; in test [2], 310 nM.
In the case of `CO[C@@H]1[C@@H](n2cc(-c3ccc(Cl)c(F)c3F)nn2)[C@@H](O)[C@@H](CO)O[C@@H]1Cc1cn(C23CCC(N)(CC2)CC3)nn1` [Ex 2.2.39.], the 50% inhibitory concentration (IC50) stood at 70 nM in test [1] and 6070 nM in test [2].
Turning to `CO[C@@H]1[C@@H](n2cc(-c3ccc(Cl)c(F)c3F)nn2)[C@@H](O)[C@@H](CO)O[C@@H]1Cc1cn([C@H]2CCCC2(F)F)nn1` [Example 2.1.64.B, (2R,3R,4S,5R,6R)-4-(4-(4-chloro-2,3-difluorophenyl)-1H-1,2,3-triazol-1-yl)-6-((1-((S)-2,2-difluorocyclopentyl)-1H-1,2,3-triazol-4-yl)methyl)-2-(hydroxymethyl)-5-methoxytetrahydro-2H-pyran-3-ol], the figures for the half-maximal inhibitory concentration (IC50) in test [1] and in test [2] were 30 nM and 2340 nM, respectively.
Turning to `CO[C@@H]1[C@@H](n2cc(-c3ccc(Br)c(F)c3F)nn2)[C@@H](O)[C@@H](CO)O[C@@H]1Cc1cn(C(C)(C)C(F)F)nn1` [Ex 4.1.28.], the IC50 was 50 nM in test [1] and 1020 nM in test [2].
For the compound `CO[C@@H]1[C@@H](n2cc(-c3ccc(Cl)c(F)c3F)nn2)[C@@H](O)[C@@H](CO)O[C@@H]1Cc1cn([C@@H]2CC[C@H]2F)nn1` (single isomer, unassigned) [Example 2.1.88.D, (2R,3R,4S,5R,6R)-4-(4-(4-chloro-2,3-difluorophenyl)-1H-1,2,3-triazol-1-yl)-6-((1-((1R*,2R*)-2-fluorocyclobutyl)-1H-1,2,3-triazol-4-yl)methyl)-2-(hydroxymethyl)-5-methoxytetrahydro-2H-pyran-3-ol], the half-inhibitory concentration (IC50) in test [1] was determined as 40 nM; in test [2], 2270 nM.
Take `CO[C@@H]1[C@@H](n2cc(-c3ccc(F)c(F)c3F)nn2)[C@@H](O)[C@@H](CO)O[C@@H]1Cc1cn(C2(C)COC2)nn1` [Ex 3.1.6., (2R,3R,4S,5R,6R)-2-(hydroxymethyl)-5-methoxy-6-((1-(3-methyloxetan-3-yl)-1H-1,2,3-triazol-4-yl)methyl)-4-(4-(2,3,4-trifluorophenyl)-1H-1,2,3-triazol-1-yl)tetrahydro-2H-pyran-3-ol]: the half-inhibitory concentration (IC50) in test [1] is 50 nM; in test [2], 190 nM.
The like results for `CO[C@@H]1[C@@H](n2cc(-c3ccc(Cl)c(F)c3F)nn2)[C@@H](O)[C@@H](CO)O[C@@H]1Cc1cn(C2(C(F)F)CCC2)nn1` [Ex 2.1.43.] were, in that order, 20 nM and 610 nM.
Consider `CO[C@@H]1[C@@H](n2cc(-c3ccc(Br)c(F)c3F)nn2)[C@@H](O)[C@@H](CO)O[C@@H]1Cc1cn([C@@H]2CC[C@@H]2F)nn1` (relative stereo) [Example 4.1.88.AB, (2R,3R,4S,5R,6R)-4-(4-(4-bromo-2,3-difluorophenyl)-1H-1,2,3-triazol-1-yl)-6-((1-((1R*,2S*)-2-fluorocyclobutyl)-1H-1,2,3-triazol-4-yl)methyl)-2-(hydroxymethyl)-5-methoxytetrahydro-2H-pyran-3-ol], for which the IC50 in test [1] was 30 nM; in test [2], 2450 nM.
As to `CO[C@@H]1[C@@H](n2cc(-c3ccc(C)c(F)c3F)nn2)[C@@H](O)[C@@H](CO)O[C@@H]1Cc1cn(C(C)(C)CO)nn1` [Ex 1.1.9.], the IC50 in test [1] came out at 70 nM; in test [2] it was 44000 nM.
With `CO[C@@H]1[C@@H](n2cc(-c3ccc(F)c(F)c3F)nn2)[C@@H](O)[C@@H](CO)O[C@@H]1Cc1cn(C23CCC(N)(CC2)CC3)nn1` [Ex 3.2.39.], the IC50 amounted to 50 nM in test [1] and 810 nM in test [2].

Values taken from patent publication US20240109930A1, “TRIAZOLYL-METHYL SUBSTITUTED ALPHA-D-GALACTOPYRANOSIDE DERIVATIVES” (Idorsia Pharmaceuticals Ltd, priority 2021, published 2024).
